Patent US11541050B2, “Pyrimidine derivatives for the treatment of viral infections” (JANSSEN SCIENCES IRELAND UC, priority 2011, dated 2023)

Columns and labels:
[1] = target: T1, human TLR8 (wild type sequence) (Homo sapiens, UniProt Q9NR97); test: TLR8 cellular NFκB-luc reporter assay, wild type TLR8; type: cell-based; design: unit not given here; settings: lowest effective concentration, wild type TLR8 (compounds 1-73)
T1 construct: expressed in transfected cells; host or cells: HEK293
T1 sequence (Q9NR97 27-1041): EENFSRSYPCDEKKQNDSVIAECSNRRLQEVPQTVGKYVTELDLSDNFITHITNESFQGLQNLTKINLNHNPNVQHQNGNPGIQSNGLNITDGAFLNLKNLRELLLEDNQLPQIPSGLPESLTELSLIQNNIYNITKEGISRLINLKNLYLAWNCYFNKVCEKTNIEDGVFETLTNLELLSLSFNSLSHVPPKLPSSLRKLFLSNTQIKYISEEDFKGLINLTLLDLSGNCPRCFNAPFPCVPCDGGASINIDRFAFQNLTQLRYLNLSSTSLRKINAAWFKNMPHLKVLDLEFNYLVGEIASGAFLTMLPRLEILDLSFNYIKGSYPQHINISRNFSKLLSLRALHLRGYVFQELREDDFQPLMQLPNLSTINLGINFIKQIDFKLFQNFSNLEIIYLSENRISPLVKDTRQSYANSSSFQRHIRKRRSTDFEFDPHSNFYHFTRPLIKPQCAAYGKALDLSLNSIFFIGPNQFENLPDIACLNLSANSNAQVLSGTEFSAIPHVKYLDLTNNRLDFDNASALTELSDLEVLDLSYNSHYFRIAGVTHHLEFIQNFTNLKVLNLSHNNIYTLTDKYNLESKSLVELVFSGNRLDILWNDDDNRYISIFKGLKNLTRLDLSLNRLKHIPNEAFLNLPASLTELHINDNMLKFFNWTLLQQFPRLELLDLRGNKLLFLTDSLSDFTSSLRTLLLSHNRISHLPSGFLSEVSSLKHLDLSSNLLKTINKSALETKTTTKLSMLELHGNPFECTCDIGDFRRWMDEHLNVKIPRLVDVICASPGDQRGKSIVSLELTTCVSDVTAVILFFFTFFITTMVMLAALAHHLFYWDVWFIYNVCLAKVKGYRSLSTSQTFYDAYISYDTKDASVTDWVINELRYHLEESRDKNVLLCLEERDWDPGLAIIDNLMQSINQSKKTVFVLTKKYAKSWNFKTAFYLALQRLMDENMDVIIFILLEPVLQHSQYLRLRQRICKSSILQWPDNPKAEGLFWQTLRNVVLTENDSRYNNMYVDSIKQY
In short: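 HEK293, transient transfection 48 h (CMV-TLR7/8 WT or 2nd-LRR deletion + NFκB-luc); compound 6 h, 37 °C, 5% CO2; Steady Lite luciferase; quadruplicate dose-response; LEC = conc. ≥2× above assay SD.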

[2] = tested on: HCV replicon in Huh-7 luc/neo cells; test: Suppression of HCV replicon replication by conditioned media from compound-treated PBMC; type: cell-based, HCV type 1 b; settings: Hepatitis C virus, Huh-7; read-out: PBMC-HUH7_EC50
In short: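 Human PBMC (≥2 donors, RPMI + 10% human AB serum, 2×10^5 cells/well) incubated overnight with compounds; supernatant transferred onto Huh-7 luc/neo HCV 1b replicon cells. After 24 h, replication read as luciferase activity. Recombinant interferon α-2a served as standard.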

With `CCCCNc1nc(N)ncc1Oc1ccccc1OC` [Compound 64] the TLR8-wt_LEC [1] was 18.43 and the EC50 [2] was 4290 nM.
For `CCCCCNc1nc(N)ncc1Oc1ccccc1OC` [Compound 38], the TLR8-wt_LEC [1] was >50 and the EC50 [2] was 11300 nM.
With `CCCCCNc1nc(N)ncc1OC` [Compound 56] the TLR8-wt_LEC [1] was 5.55 and the EC50 [2] was 800 nM.
`CCCCNc1nc(N)ncc1OCc1ccc(-c2ccccc2)cc1` [Compound 58] gave a TLR8-wt_LEC [1] of 3.84 and an EC50 [2] of 2990 nM.
For `CCCCCOc1cnc(N)nc1NCCCC` [Compound 32], the TLR8-wt_LEC [1] was 9.97 and the EC50 [2] was 1060 nM.
With `CCCCCCNc1nc(N)ncc1OCC` [Compound 70] the TLR8-wt_LEC [1] was >24.59 and the EC50 [2] was > 23800 nM.
`CCCCNc1nc(N)ncc1OCC(C)C` [Compound 31] was tested, and the TLR8-wt_LEC [1] was 17.53 and the EC50 [2] was 10400 nM.
`CCCCCNc1nc(N)ncc1OCC` [Compound 63] was tested, and the TLR8-wt_LEC [1] was 6.35 and the EC50 [2] was 2690 nM.
With `CCCCNc1nc(N)ncc1OC` [Compound 4] the TLR8-wt_LEC [1] was 2.56 and the EC50 [2] was 1140 nM.
With `CCCCNc1nc(N)ncc1OCC` [Compound 60] the TLR8-wt_LEC [1] was 2.08 and the EC50 [2] was 1910 nM.
